Marks after values point to notes of the source that are not given here.
Columns and labels:
hECE cells = test: Cell-vitality staining (MTT assay); assay type: cell-based, human; details: for hECE cell vitality (MTT staining normalized to OD570 of control unperturbed cells), Baseline / hECE cell vitality (MTT staining normalized to OD570 of control unperturbed cells), 30 min pHo: means ±SD; for hECE cell vitality (MTT staining normalized to OD570 of control unperturbed cells), 30 min pHo: after 30 min pHo measurement
Experimental: Cell-vitality staining was done using the 3-[4,5-dimethylthiazol-2-yl]-2,5-diphenyl tetrazolium bromide (MTT) assay. MTT serves as a substrate for mitochondrial dehydrogenases, and only viable functional mitochondria are capable of cleaving MTT to generate the colored product formazan. MTT solution was prepared by dissolving MTT at a concentration of 5 mg/ml in phosphate-buffered saline (PBS) composed of (mM) NaCl (137), KCl (2.68), Na2HPO4 (10), KH2PO4 (1.76), pH 7.4, and filtering the solution through Millipore filter. Following treatments/assays, cells on filters were washed with fresh and warm (37° C.) PBS and incubated for 60 min at 37° C. in MTT solution. At the completion of incubation, cells were washed with PBS, and solubilized in isopropanol containing 0.1 M HCl plus 1% Triton X-100. Lysates were mixed by pipetting to dissolve the reduced MTT crystals (during which time the colorless solution turned purple) and were spinned at 10,000 g for 5 min. The solubilized formazan was measured by determining absorption at 570 nm. Background absorbance at 690 nm was subtracted for each sample, and values were normalized to OD570 (optic density) of control unperturbed cells.

[1] = tested on: hECE cells (Human Ectocervical-Vaginal Epithelial Cells); test: Determinations of extracellular pH (pHo) in luminal and contra-luminal solutions of hECE cells cultured on filters; assay type: cell-based; details: for effect of co-treatment on estrogen-induced decrease in luminal pHo: hECE cells in steroid-free medium + 10 nM 17β-estradiol; for effect of co-treatment on estrogen-induced decrease in luminal pHo / effect on contra-luminal pHo: tamoxifen 10 μM; for effect of co-treatment on estrogen-induced decrease in luminal pHo / effect on luminal pHo, alone / effect on contra-luminal pHo: ICI-182780 10 μM; for effect of co-treatment on estrogen-induced decrease in luminal pHo / effect on luminal pHo, alone: progesterone 1 μM; for effect on luminal pHo, alone: without 17β-estradiol; for effect on contra-luminal pHo: progesterone 1 μM (not shown); for effect on estrogen-induced acidification of the luminal pHo: 10 nM 17β-estradiol, 30 min pre-treatment, bafilomycin A1 1 μM, ouabain 1 μM (contra-luminal), omeprazol 100 μM, FIG. 10; for effect on luminal pHo (specificity of estrogen effect): hormone at 10 nM, FIG. 8A
Experimental: Referring to FIG. 4A, hECE cells or Human Endocervical Cells were plated on Anocell filters (Anocel™-10, Oxon, UK, obtained through Sigma Chemicals, St. Louis, Mo.), which are ceramic-base filters, pore size of 0.02 μm width, 50 μm depth, and surface area of 0.6 cm^2. Filters 300 and 302 were coated with 4 μg/cm^2 collagen type IV and incubated at 37° C. overnight. The remaining collagen solution was aspirated and the filter was dried at 37° C. Before plating, filters 300 were rinsed 3 times with Hanks' Balanced Salt Solution. Cells were plated either on the upper surface 302 of one filter 300 (for determinations of luminal pHo) or on the bottom surface 304 of the other filter 300 (for determinations of the contra-luminal pHo) at 3·10^5 cells/cm^2. By plating at this relatively high density the cultures became confluent within 12 hours after plating.
Plates containing the filters were placed in a tissue culture incubator (37° C.), and pHo changes in the luminal and contra-luminal solutions were determined using AMANI-1000 microcombination pH electrodes 306 (Harvard Apparatus, Holliston, Mass., obtained through Genomics Solutions, Ann Harbor, Mich.). The AMANI-1000 pH sensor (stored in pH 7.0) is based on metal-metal oxide pH measurements and the pH sensitive layer is immobilized on plastic. The reference electrode employs an Ag/AgCl in 3.4 M KCl reference electrode, and the reference electrode junction is leak-free ensuring no leaks of KCl out of the reference electrode. The design of the pH electrodes 306 enabled their use for the purpose of the present experiments: tip diameter of 1 mm, depth of immersion 1 mm, and response time of less than 5 sec.
Electrodes 306 attached to a stand were held stable with the tip immersed in the solution within the upper compartment of the filter to a depth of about 2 mm avoiding direct contact between the electrode tip and the cultured cells. The electrodes were connected directly to a pH meter 310 (e.g., Accumet pH meter 910) (Fisher Scientific, Suwanee Ga.). After stabilization, the luminal and contraluminal solutions were gently aspirated using glass pipette, and replaced with fresh warmed (37° C.) Basic Salt Solution containing (in mM) NaCl (140), KCl (5), MgCl2 (1), CaCl2 (1), glucose (10), and 0.1% bovine serum albumin, pH 7.4. The volumes in the luminal and contraluminal compartments were 150 μl and 500 μl, respectively. Determinations of changes in pHo were made at time 0, and at 5 min intervals thereafter for up to 30 min.
To remove intracellular estrogens cells were grown in steroid-free medium as described. This procedure involved shifting cells on filters for three days prior to pHo assays to a medium composed of phenol-red-deficient (DMEM)/Ham's F12 or (Sigma Chemicals, St. Louis, Mo.) containing 8% heat inactivated fetal bovine serum that was previously treated with charcoal to remove steroids. Preparation of charcoal-treated serum was described; briefly, dextran-coated charcoal (Sigma Chemicals, St. Louis, Mo.) was dissolved at 8% in 0.15 M NaCl, autoclaved, mixed by stirring, spun and the pellet was resuspended as 1 gm/1.25 ml in H2O. Fetal bovine serum (Hyclone, Logan, Utah) was mixed with the activated charcoal-dextran at 20:1 (Vol:Vol) and incubated for 45 min at 55° C. At the completion of incubation the mixture was spun twice at 800 g for 20 min and the supernatant (serum) was decanted and collected. For experiments, cells were shifted to steroid-free medium for 3 days; alternatively, cells were shifted to the steroid-free medium for 24 hrs and treated with 17β-estradiol for two additional days.

[2] = Steroid-Free Medium + 10 nM 17β-Estradiol + substance at the concentration given
[3] = Steroid-Free Medium + substance, 3 to 4 repeats
[4] = hECE cells in steroid-free medium
[5] = hECE cells, steroid-free medium + estradiol, 1 μM for 30 min added to the luminal solution

| SMILES | hECE cell vitality (MTT staining normalized to OD570 of control unperturbed cells), Baseline (hECE cells; [2]) | hECE cell vitality (MTT staining normalized to OD570 of control unperturbed cells), 30 min pHo (hECE cells; [2]) | hECE cell vitality (MTT staining normalized to OD570 of control unperturbed cells), Baseline (hECE cells; [3]) | hECE cell vitality (MTT staining normalized to OD570 of control unperturbed cells), 30 min pHo (hECE cells; [3]) | effect of co-treatment on estrogen-induced decrease in luminal pHo [1] | effect on contra-luminal pHo ([1]; hECE cells) | effect on estrogen-induced acidification of the luminal pHo ([1]; hECE cells) | also measured |
| --- | --- | --- | --- | --- | --- | --- | --- | --- |
| [Cl][Cd][Cl] [CdCl2] | 95 ± 2% | 95 ± 3% | 94 ± 2% | 95 ± 9% | – | – | – | – |
| O=C(O)CN(CCOCCOCCN(CC(=O)O)CC(=O)O)CC(=O)O [EGTA] | – | – | – | – | – | – | – | effect on contra-luminal solution ([1]; hECE cells, 1.2 mM EGTA plus 1.2 mM CdCl2 in luminal and contra-luminal solutions): acidification of the contra-luminal solution; effect on luminal acidification ([1]; hECE cells, 1.2 mM EGTA plus 1.2 mM CdCl2 in luminal and contra-luminal solutions (extracellular calcium <0.1 mM)): blocked the luminal acidification; luminal pHo and contra-luminal pHo ([1]; hECE cells, following treatment with 1.2 mM EGTA (plus 1.2 mM CdCl2)): ~7.2 |
| C[C@]12CC[C@@H]3c4ccc(O)cc4C[C@@H](CCCCCCCCC[S+]([O-])CCCC(F)(F)C(F)(F)F)[C@H]3[C@@H]1CC[C@@H]2O (some centres unmarked) [ICI-182780] | 89 ± 9% | 93 ± 6% | 95 ± 8% | 95 ± 3% | blocked | Neither tamoxifen ICI-182780 or progesterone had any appreciable effect | – | effect on luminal pHo, alone [1, 4]: no effect |
| CO/C1=C\C(C)=C\[C@@H](C)[C@@H](O)[C@@H](C)C/C(C)=C/C=C/[C@H](OC)[C@@H]([C@@H](C)[C@@H](O)[C@H](C)[C@@]2(O)C[C@@H](O)[C@H](C)[C@@H](C(C)C)O2)OC1=O [bafilomycin A1] | 93 ± 7% | 92 ± 5% | 94 ± 3% | 95 ± 4% | – | – | blocked | effect on the contra-luminal or luminal pHo ([1]; hECE cells, steroid-free medium + estradiol, 1 μM for 30 min added to the contra-luminal solution): no effect; effect on luminal pHo [1, 5]: significantly blocked the estrogen-decrease in luminal pHo; effect on the contra-luminal pHo [1, 5]: little effect |
| CC/C(=C(/CC)c1ccc(O)cc1)c1ccc(O)cc1 [diethylstilbestrol] | – | – | – | – | – | – | – | effect on luminal pHo (specificity of estrogen effect) [1, 4]: could mimic 17β-estradiol decrease in luminal pHo |
| COc1ccc2[nH]c([S+]([O-])Cc3ncc(C)c(OC)c3C)nc2c1 (centres unmarked) [omeprazol] | 91 ± 6% | 95 ± 4% | 92 ± 5% | 95 ± 4% | – | – | no effect | – |
| C[C@@H]1O[C@@H](O[C@H]2C[C@@H](O)[C@]3(CO)[C@H]4[C@H](O)C[C@]5(C)[C@@H](C6=CC(=O)OC6)CC[C@]5(O)[C@@H]4CC[C@]3(O)C2)[C@H](O)[C@H](O)[C@H]1O [ouabain] | 62 ± 4^a,b % | 74 ± 9^b % | 71 ± 8^a,b % | 69 ± 9^b % | – | – | attenuated mildly estradiol effect | effect on luminal pHo in cells grown in steroid-free medium ([1]; hECE cells, no estradiol, ouabain 1 μM, 30 min, added to contra-luminal solution): mild alkalinization of luminal pHo; effect on MTT cleavage (cell viability) (hECE cells; hECE cells, treatments of Table 1): decreased MTT incorporation and staining |
| CC(=O)[C@H]1CC[C@H]2[C@@H]3CCC4=CC(=O)CC[C@]4(C)[C@H]3CC[C@]12C [progesterone] | 91 ± 6% | 95 ± 4% | 95 ± 5% | 95 ± 4% | no significant effect | Neither tamoxifen ICI-182780 or progesterone had any appreciable effect | – | effect on luminal pHo, alone [1, 4]: no effect |
| CC/C(=C(\c1ccccc1)c1ccc(OCCN(C)C)cc1)c1ccccc1 [tamoxifen] | 95 ± 3% | 96 ± 4% | 93 ± 4% | 95 ± 4% | no significant effect | Neither tamoxifen ICI-182780 or progesterone had any appreciable effect | – | luminal pHo ([1]; hECE cells in steroid-free medium, tamoxifen 10 μM alone, 24 hrs, decreased from 7.24±0.02, p<0.01): 7.15±0.02 |
| C[C@]12CC[C@H]3[C@@H](CCC4=CC(=O)CC[C@@]43C)[C@@H]1CC[C@@H]2O [testosterone] | – | – | – | – | – | – | – | effect on luminal pHo (specificity of estrogen effect) [1, 4]: no effect |
